From patent US20200079906A1, “PHOTODYNAMIC THERAPY COMPLEX” (University College Cardiff Consultants Limited, priority 2015, published 2020)
“Also recorded” adds a separate entry of the source.

Assays:
Experiment in all cases: Antimicrobial photodynamic protocol, viable cell count after laser exposure
Assay type in all cases: cell-based
[1] = system: Escherichia coli (NCTC10418); conditions: E. coli; for Antimicrobial activity (Log10 reduction of viable cells): green laser, 3 min laser exposure
Method: (§1) The organisms used in this study were Escherichia coli (NCTC10418) and Staphylococcus epidermidis (ATCC12228), Pseudomonas aeruginosa (NCIMB10548), Methicillin Resistant Staphylococcus aureus (NCTC12493), Streptococcus pyogenes (ATCC19615) and Acinetobacter baumannii (NCIMB9214); they were stored at −80° C. These organisms were subcultured, when needed, on Brain Heart Infusion (BHI) Agar overnight aerobically at 37° C. The plates were then stored at 4° C. for no more than two weeks. Bacterial suspensions used for the experiments were grown in Brain Heart Infusion (BHI) broth after inoculation with a loopful of cells from a single colony on a BHI plate and incubated aerobically for 24 h at 37° C. statically. These overnight cultures were then diluted 1 in 100 in PBS. The resulting bacterial suspension contained approximately 10^6 CFU/mL. Each cell suspension was used to disperse pure PS, e.g. PBAE-TBO, to concentrations of 0.2 mg/mL or PBAEs-PS derivatives to an equivalent PS concentration.
(§2) 200 μL aliquots of the resulting suspension were immediately poured in a GREINER 96 U-BOTTOM well plate. The well plate was then irradiated with a laser light (633 nm) using a 500 mW red laser (RRL-635 nm-500 mW-1080060, Changchun New Industries Optoelectronics, China) or a 500 mW green laser (MGL-FN-532 nm-500 mW-15097031, Changchun New Industries Optoelectronics, China) for different time periods (between 5 sec to 3 min). The red laser was employed for TBO while the green laser was used for RB and ERY.
(§3) After exposure the bacterial cells (L+S+) were counted through serial dilutions and then plating on BHI Agar. Along this test, different experiments were performed including the testing of dark toxicity (labelled with L−S+), samples exposed uniquely to laser light (L+S−) or samples not expose to either laser light and PBAE (L−S−).
(§4) Through the experiment prepared samples, well plates and inoculated plates were immediately covered with aluminium foil to reduce biased measuring results due to exposure of any light besides the laser. All plates were incubated after the experiment for 24 hours at 37° C. All experiments were performed on three independent cultures.

[2] = system: Methicillin Resistant Staphylococcus aureus (NCTC12493); conditions: for Antimicrobial activity (Log10 reduction of viable cells): green laser, 5 sec, MRSA NCTC12493
Method: as §1, §2, §3, §4

[3] = system: Pseudomonas aeruginosa (NCIMB10548); conditions: TBO series, P. aeruginosa
Method: as §1, §2, §3, §4

[4] = system: Acinetobacter baumannii (NCIMB9214); conditions: TBO series, A. baumannii
Method: as §1, §2, §3, §4

[5] = system: Streptococcus pyogenes (ATCC19615); conditions: TBO series
Method: as §1, §2, §3, §4

[6] = system: Staphylococcus epidermidis (ATCC12228); conditions: TBO series
Method: as §1, §2, §3, §4

[7] = L+S+, red laser, 0.2 mg/mL TBO equivalent

`O=C1OC2(c3ccccc31)c1cc(I)c(O)c(I)c1Oc1c2cc(I)c(O)c1I` [ERY, Erythrosin B] was tested, and the “Antimicrobial activity (Log10 reduction of viable cells)” value ([1]; ERY series) was “exhibit antimicrobial activity; also recorded: not as effective as RB” and the “Antimicrobial activity (Log10 reduction of viable cells)” value ([2]; ERY series) was “exhibit antimicrobial activity; also recorded: not as effective as RB”.

For `Cc1cc2nc3ccc(=[N+](C)C)cc-3sc2cc1N.[Cl-]` [TBO, Toluidine Blue O], the “Antimicrobial effect of laser exposure (reduction of viable cells)” value [3, 7] was “tendencies of progressive reduction”, the “Cell reduction without irradiation (dark toxicity)” value (shortened to “Cell reduction without irradiation”) ([3]; L-S+) was “did not return any cell reduction” and the “Antimicrobial effect of laser exposure (reduction of viable cells)” value [4, 7] was “tendencies of progressive reduction”. The “Cell reduction without irradiation” value ([4]; L-S+) was “did not return any cell reduction”, the “Antimicrobial effect of laser exposure (reduction of viable cells)” value [5, 7] was “tendencies of progressive reduction” and the “Cell reduction without irradiation” value ([5]; L-S+) was “did not return any cell reduction”. The “Antimicrobial effect of laser exposure (reduction of viable cells)” value ([1]; TBO series, L+S+, red laser, 0.2 mg/mL TBO equivalent) was “tendencies of progressive reduction”, the “Cell reduction without irradiation” value ([1]; TBO series, L-S+) was “did not return any cell reduction” and the “Antimicrobial effect of laser exposure (reduction of viable cells)” value [6, 7] was “tendencies of progressive reduction”. For the same compound, the “Cell reduction without irradiation” value ([6]; L-S+) was “did not return any cell reduction”, the “Antimicrobial effect of laser exposure (reduction of viable cells)” value ([2]; TBO series, L+S+, red laser, 0.2 mg/mL TBO equivalent, MRSA) was “tendencies of progressive reduction” and the “Cell reduction without irradiation” value ([2]; TBO series, L-S+, MRSA) was “did not return any cell reduction”.

In the case of `O=C([O-])c1c(Cl)c(Cl)c(Cl)c(Cl)c1-c1c2cc(I)c(=O)c(I)c-2oc2c(I)c([O-])c(I)cc12.[Na+].[Na+]` [RB, Rose Bengal], the “Antimicrobial activity (Log10 reduction of viable cells)” value ([1]; RB series) is reported as “exhibit antimicrobial activity” and the “Antimicrobial activity (Log10 reduction of viable cells)” value ([2]; RB series) is reported as “exhibit antimicrobial activity”.
